Results from ChEMBL document CHEMBL1201862, “PubChem BioAssay data set” (2004).
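48-hour exposure; five concentrations; linearly interpolated endpoints. GI50 = concentration required for 50% inhibition of growth.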 Active and inactive are the calls of the source. Cut-off read from the data, not from the text of the source: active = GI50 up to about 1.1 µM and inactive = higher. Where a SMILES comes first, the peptide text is derived from it. [ ]: non-standard residue; d: D form. The star is where a group is joined. ξ: configuration not given here. X4 = COc1ccc(C(N*)c2ccc(OC)cc2)cc1; NMeF = CN[C@@H](Cc1ccccc1)C(=O)O; NMeD = CN[C@@H](CC(=O)O)C(=O)O; NMeV = CN[C@H](C(=O)O)C(C)C; ξNMeV = CNC(C(=O)O)C(C)C; Boc = CC(C)(C)OC(=O)*; ξNMeA = CNC(C)C(=O)O; ξV = CC(C)C(N)C(=O)O

Columns and labels:
Experiment in all cases: NCI-60 cell line screen, 48 h
786-0 = system: 786-0
A549 = system: A549
ACHN = system: ACHN
CAKI-1 = system: CAKI-1
COLO 205 = system: COLO 205
HCT-116 = system: HCT-116
HL-60 = system: HL-60
KM12 = system: KM12
M14 = system: M14
NCI-H23 = system: NCI-H23
OVCAR-3 = system: OVCAR-3
OVCAR-4 = system: OVCAR-4
RPMI-8226 = system: RPMI-8226
SF-268 = system: SF-268
SF-295 = system: SF-295
SF-539 = system: SF-539
SK-MEL-5 = system: SK-MEL-5
SNB-19 = system: SNB-19
UACC-62 = system: UACC-62
UO-31 = system: UO-31

| SMILES | GI50 (786-0) | GI50 (A549) | GI50 (ACHN) | GI50 (CAKI-1) | GI50 (COLO 205) | GI50 (HCT-116) | GI50 (HL-60) | GI50 (KM12) | GI50 (M14) | GI50 (NCI-H23) | GI50 (OVCAR-3) | GI50 (OVCAR-4) | GI50 (RPMI-8226) | GI50 (SF-268) | GI50 (SF-295) | GI50 (SF-539) | GI50 (SK-MEL-5) | GI50 (SNB-19) | GI50 (UACC-62) | GI50 (UO-31) |
| --- | --- | --- | --- | --- | --- | --- | --- | --- | --- | --- | --- | --- | --- | --- | --- | --- | --- | --- | --- | --- |
| CCOc1cc(C2SCC(=O)N2c2nc3cc4sc(N5C(=O)CSC5c5ccc(O)c(OCC)c5)nc4cc3s2)ccc1O (stereo not given) | 31.6 µM (inactive) | 6.98 µM (inactive) | > 48.4 µM (inactive) | > 50.7 µM (inactive) | 4.8 µM (inactive) | 20.9 µM (inactive) | 61.2 µM (inactive) | 45.3 µM (inactive) | > 100 µM (inactive) | 9.59 µM (inactive) | > 100 µM (inactive) | 48.4 µM (inactive) | 32.5 µM (inactive) | > 68.2 µM (inactive) | > 100 µM (inactive) | 15.7 µM (inactive) | 59.2 µM (inactive) | 41.3 µM (inactive) | 98.6 µM (inactive) | 21.4 µM (inactive) |
| O=C1C(c2ccccc2)=C(c2ccccc2)C1(Cl)Cl | 2.69 µM (inactive) | 11.4 µM (inactive) | 2.64 µM (inactive) | 2.62 µM (inactive) | 2.59 µM (inactive) | 1.5 µM (inactive) | 0.736 µM (active) | 6.65 µM (inactive) | 2.22 µM (inactive) | 2.75 µM (inactive) | 2.62 µM (inactive) | 3.67 µM (inactive) | 2.11 µM (inactive) | 2.99 µM (inactive) | 9.89 µM (inactive) | 3.05 µM (inactive) | 2.82 µM (inactive) | 16.7 µM (inactive) | 1.86 µM (inactive) | 3.61 µM (inactive) |
| COC1=C2CC(C)CC(OC)C(O)C(C)/C=C(\C)C(OC(N)=O)C(OC)/C=C\C=C(/C)C(=O)NC(=C(/C=N/N3CCCCC3)C1=O)C2=O (stereo not given) | 10.2 µM (inactive) | 21.5 µM (inactive) | 15.4 µM (inactive) | 15.7 µM (inactive) | 2.93 µM (inactive) | 3.25 µM (inactive) | 1.95 µM (inactive) | 11.6 µM (inactive) | 18.7 µM (inactive) | 15.8 µM (inactive) | 2.15 µM (inactive) | 5.26 µM (inactive) | 5.55 µM (inactive) | 6.18 µM (inactive) | 13.5 µM (inactive) | 7.33 µM (inactive) | 15.8 µM (inactive) | 16.1 µM (inactive) | 18.6 µM (inactive) | 10.8 µM (inactive) |
| NS(=O)(=O)c1ccc(/N=N/c2cc3ccccc3c(C(=O)O)c2O)cc1 | > 55.8 µM (inactive) | > 52.7 µM (inactive) | 15.7 µM (inactive) | > 100 µM (inactive) | > 58.6 µM (inactive) | 12.6 µM (inactive) | > 100 µM (inactive) | 5.18 µM (inactive) | 97.1 µM (inactive) | > 47.8 µM (inactive) | > 47.8 µM (inactive) | > 46.5 µM (inactive) | > 100 µM (inactive) | > 52.1 µM (inactive) | > 100 µM (inactive) | > 100 µM (inactive) | > 59.2 µM (inactive) | > 64.9 µM (inactive) | > 55.7 µM (inactive) | > 49.8 µM (inactive) |
| Cc1ccc(C2=NN(C)COC2C(F)(F)F)cc1 (stereo not given) | > 100 µM (inactive) | > 100 µM (inactive) | > 100 µM (inactive) | > 100 µM (inactive) | > 100 µM (inactive) | > 100 µM (inactive) | > 100 µM (inactive) | > 100 µM (inactive) | > 100 µM (inactive) | > 100 µM (inactive) | > 100 µM (inactive) | > 100 µM (inactive) | > 100 µM (inactive) | > 100 µM (inactive) | > 100 µM (inactive) | > 100 µM (inactive) | > 100 µM (inactive) | > 100 µM (inactive) | 18.6 µM (inactive) | > 100 µM (inactive) |
| c1ccc(CNc2ccc3[nH]c4cnccc4c3c2)cc1 | 15.3 µM (inactive) | 17.9 µM (inactive) | 15.1 µM (inactive) | 16.2 µM (inactive) | 15.9 µM (inactive) | 17.5 µM (inactive) | 11 µM (inactive) | 17.3 µM (inactive) | 18 µM (inactive) | 15.1 µM (inactive) | 14 µM (inactive) | 14.4 µM (inactive) | 16.4 µM (inactive) | 16.4 µM (inactive) | 18.5 µM (inactive) | 18.1 µM (inactive) | 15.2 µM (inactive) | 16 µM (inactive) | 17.6 µM (inactive) | 15.5 µM (inactive) |
| CC(C)/C(Cl)=N/OC(=O)Nc1ccc(OC(F)(F)F)cc1 | 6.81 µM (inactive) | 17 µM (inactive) | 12.6 µM (inactive) | 5.2 µM (inactive) | 1.84 µM (inactive) | 6.65 µM (inactive) | 1.97 µM (inactive) | 16.6 µM (inactive) | 3.78 µM (inactive) | 15.7 µM (inactive) | 17.9 µM (inactive) | 4.19 µM (inactive) | 2.49 µM (inactive) | 23.2 µM (inactive) | 18.5 µM (inactive) | 17.3 µM (inactive) | 7.14 µM (inactive) | 17.7 µM (inactive) | 16.3 µM (inactive) | 10.8 µM (inactive) |
| COc1ccc(C(NC(=O)C[C@@H](C(=O)N(C)C(C)C(=O)O)N(C)C(=O)[C@@H]2CCCN2C(=O)[C@H](C(C)C)N(C)C(=O)C(C(C)C)N(C)C(=O)[C@H](Cc2ccccc2)N(C)C(=O)C(NC(=O)OC(C)(C)C)C(C)C)c2ccc(OC)cc2)cc1 (stereo not given in full) (Boc-[ξV][NMeF][ξNMeV][NMeV]P[NMeD](X4)[ξNMeA]-OH) | 21.3 µM (inactive) | > 37.5 µM (inactive) | 36.9 µM (inactive) | 29.6 µM (inactive) | 20.4 µM (inactive) | 13.1 µM (inactive) | 8 µM (inactive) | 7.18 µM (inactive) | 11.8 µM (inactive) | 10.4 µM (inactive) | 13.3 µM (inactive) | 17.5 µM (inactive) | 8.24 µM (inactive) | 7.53 µM (inactive) | 18.9 µM (inactive) | 7.94 µM (inactive) | 6.52 µM (inactive) | 22.4 µM (inactive) | 6.73 µM (inactive) | 24.8 µM (inactive) |
| c1ccc([P+](CCC[P+](c2ccccc2)(c2ccccc2)c2ccccc2)(c2ccccc2)c2ccccc2)cc1 | > 100 µM (inactive) | 34 µM (inactive) | > 100 µM (inactive) | > 100 µM (inactive) | 21.8 µM (inactive) | 20.1 µM (inactive) | 10.7 µM (inactive) | 24.4 µM (inactive) | 71.9 µM (inactive) | 25.2 µM (inactive) | 13.5 µM (inactive) | 57 µM (inactive) | 7.38 µM (inactive) | 40.4 µM (inactive) | 31.3 µM (inactive) | 39 µM (inactive) | 20.2 µM (inactive) | 16.3 µM (inactive) | 26.1 µM (inactive) | > 99.5 µM (inactive) |
| CCCCCCCCCCCC1CC(=O)NCCCN(C)CCCCN(C)CCCN1C (stereo not given) [BUDMUNCHIAMINE A] | 1.55 µM (inactive) | 1.76 µM (inactive) | 1.69 µM (inactive) | 2.08 µM (inactive) | 1.53 µM (inactive) | 1.55 µM (inactive) | 0.395 µM (active) | 1.58 µM (inactive) | 1.8 µM (inactive) | 1.73 µM (inactive) | 1.69 µM (inactive) | 1.74 µM (inactive) | 0.828 µM (active) | 1.85 µM (inactive) | 1.64 µM (inactive) | 1.75 µM (inactive) | 1.97 µM (inactive) | 1.7 µM (inactive) | 1.68 µM (inactive) | 1.72 µM (inactive) |
| Cc1ccc2occ/c(=N\Nc3ccccc3)c2c1 | 21.2 µM (inactive) | 57 µM (inactive) | > 100 µM (inactive) | 54 µM (inactive) | 41.1 µM (inactive) | 47.2 µM (inactive) | > 100 µM (inactive) | 12.7 µM (inactive) | 43 µM (inactive) | 28.1 µM (inactive) | 60.1 µM (inactive) | 13.2 µM (inactive) | 25.1 µM (inactive) | > 100 µM (inactive) | 32.2 µM (inactive) | > 100 µM (inactive) | 41.5 µM (inactive) | > 100 µM (inactive) | > 100 µM (inactive) | 70.8 µM (inactive) |
| Cc1cc(Cl)ccc1NC(=O)CCCC(=O)C1CCCC1=O (stereo not given) | > 100 µM (inactive) | > 100 µM (inactive) | > 100 µM (inactive) | > 100 µM (inactive) | > 100 µM (inactive) | > 100 µM (inactive) | > 100 µM (inactive) | > 100 µM (inactive) | > 100 µM (inactive) | > 100 µM (inactive) | > 100 µM (inactive) | > 100 µM (inactive) | > 100 µM (inactive) | > 100 µM (inactive) | > 100 µM (inactive) | > 100 µM (inactive) | > 100 µM (inactive) | > 100 µM (inactive) | > 100 µM (inactive) | > 100 µM (inactive) |
| COc1ccc(C2[C@H]3C(=O)N(c4ccc(Cc5ccc(N6C(=O)[C@@H]7ON(c8ccccc8)C(c8ccc(OC)cc8)[C@@H]7C6=O)cc5)cc4)C(=O)[C@H]3ON2c2ccccc2)cc1 (stereo not given in full) | > 100 µM (inactive) | > 100 µM (inactive) | > 100 µM (inactive) | > 100 µM (inactive) | > 100 µM (inactive) | > 100 µM (inactive) | > 100 µM (inactive) | > 100 µM (inactive) | 23.1 µM (inactive) | > 100 µM (inactive) | > 100 µM (inactive) | > 100 µM (inactive) | > 100 µM (inactive) | > 100 µM (inactive) | > 100 µM (inactive) | > 100 µM (inactive) | 96.6 µM (inactive) | > 100 µM (inactive) | > 100 µM (inactive) | > 100 µM (inactive) |
